From patent publication US20260217735A1, “HETEROCYCLES AND USES THEREOF” (Kumquat Biosciences Inc., priority 2023, published 2026)

How the values were obtained:
KRAS G12D = target: T1, KRAS G12D (Homo sapiens, UniProt P01116, G12D); experiment: HTRF assay, KRAS G12D interaction with SOS1; type: biochemical; settings: bins <500 nM / 500 nM to 1000 nM, read-out: Inhibition of KRAS G12D (IC50)
T1 construct: made in house; host or cells: E. coli, e.g. BL21 (DE3)
From the text: (§1) This assay can be also used to assess a selective inhibition or reduction of signaling output of a mutant Ras protein relative to a wildtype, or relative to a different mutant Ras protein. For example, the equilibrium interaction of wildtype KRAS or K-Ras mutant (e.g., wildtype or a mutant thereof) with SOS1 (e.g., hSOS1) can be assessed as a proxy or an indication for the ability of a subject compound to bind and inhibit Ras protein. The HTRF assay detects from (i) a fluorescence resonance energy transfer (FRET) donor (e.g., antiGST-Europium) that is bound to GST-tagged K-Ras mutant to (ii) a FRET acceptor (e.g., anti-6His-XL665) bound to a His-tagged hSOSL1.
(§2) The assay buffer can contain ~5 mM HEPES pH 7.4, ~150 mM NaCl, ~1 mM DTT, 0.05% BSA and 0.0025% (v/v) Igepal. A Ras working solution is prepared in an assay buffer containing typically a suitable amount of the protein construct (e.g., GST-tagged K-Ras mutant) and the FRET donor (e.g., antiGST-Eu(K) from Cisbio, France). A SOS1 working solution is prepared in an assay buffer containing suitable amount of the protein construct (e.g., His-hSOS1) and the FRET acceptor (e.g., anti-6His-XL665 from Cisbio, France). A suitable amount of the protein construct will depend on the range of activity or range of IC50 values being detected or under investigation. For detecting an IC50 within a range of 500 nM, the protein constructs of the same range of molarity can be utilized.
(§3) A fixed volume of DMSO with or without test compound is transferred into a 384-well plate. Ras working solution is added to all wells of the test plate. SOS1 working solution is added to all wells except for those that are subsequently filled with inhibitor control solution. Upon incubation for about 10 minutes or longer, the fluorescence is measured with a M1000Pro plate reader (Tecan) using HTRF detection (excitation 337 nm, emission 1: 620 nm, emission 2: 665 nm). Compounds are tested in duplicate at different concentrations (for example, 10 μM, 2.5 μM, 0.63 μM, 0.16 μM, 0.04 μM, 0.01 μM test compound). The ratiometric data (i.e., emission 2 divided by emission 1) is used to calculate IC50 values against Ras using GraphPad Prism (GraphPad software). Signaling output measured in terms of IC50 values can be obtained and a ratio of IC50 against one mutant relative to another mutant can be calculated. For instance, a selective reduction of K-Ras G12S signaling output can be evidenced by a ratio greater than one. In particular, a selective reduction of K-Ras G12S signaling relative to K-Ras WT signaling is evidenced if the ratio of IC50 (against K-Ras WT) to IC50 (against K-Ras G12S) is greater than 1.

KRAS WT = target: T2, KRAS WT (Homo sapiens, UniProt P01116); experiment: HTRF assay, wildtype KRAS interaction with SOS1; type: biochemical; settings: bins <500 nM / 500 nM to 1000 nM, read-out: Inhibition of KRAS WT (IC50)
T2 construct: made in house; host or cells: E. coli, e.g. BL21 (DE3)
From the text: as §1, §2, §3

KRAS G12V = target: T3, KRAS G12V (Homo sapiens, UniProt P01116, G12V); experiment: HTRF assay, KRAS G12V interaction with SOS1; type: biochemical; settings: bins <500 nM / 500 nM to 1000 nM, read-out: Inhibition of KRAS G12V (IC50)
T3 construct: made in house; host or cells: E. coli, e.g. BL21 (DE3)
From the text: as §1, §2, §3

KRAS G12S = target: T4, KRAS G12S (Homo sapiens, UniProt P01116, G12S); experiment: HTRF assay, KRAS G12S interaction with SOS1; type: biochemical; settings: bins <500 nM / 500 nM to 1000 nM, read-out: Inhibition of KRAS G12S (IC50)
T4 construct: made in house; host or cells: E. coli, e.g. BL21 (DE3)
From the text: as §1, §2, §3

MiaPaca2 cells = experiment: Ras cellular assay, growth of cells with K-Ras G12C mutation; type: cell-based; settings: Homo sapiens, MIA PaCa-2; cell proliferation assay; bins ≤500 nM / >500 nM; read-out: Inhibition of MiaPaca2 Cells (IC50)
Method: For example, this assay can be also used to assess selective growth inhibition of a mutant Ras protein relative to a wildtype or different mutant Ras protein.
MIA PaCa-2 (ATCC CRL-1420) and NCI-H1792 (ATCC CRL-5895) cell lines comprise a G12C mutation and can be used to assess Ras cellular signaling in vitro, e.g., in response to an inhibitor compound of the present disclosure. […] MIA PaCa-2 culture medium is prepared with DMEM/Ham's F12 (e.g., with stable glutamine, 10% FCS, and 2.5% horse serum. NCI-H1792 culture medium is prepared with RPMI 1640 (e.g., with stable glutamine) and 10% FCS.
On a first day (e.g., Day 1), Softagar (Select Agar, Invitrogen, 3% in ddH2O autoclaved) is boiled and tempered at 48° C. Appropriate culture medium (i.e., medium) is tempered to 37° C. Agar (3%) is diluted 1:5 in medium (=0.6%) and plated into 96 well plates (Corning, #3904), then incubated at room temperature for agar solidification. A 3% agar is diluted to 0.25% in medium (1:12 dilution) and tempered at 42° C. Cells are trypsinized, counted, and tempered at 37° C. The cells (e.g., MIA PaCa-2 at about 125-150 cells, NCI-H1792 at about 1000 cells) are resuspended in […] 0.25% Agar and plated, followed by incubation at room temperature for agar solidification. The wells are overlaid with […] of the medium. Sister wells in a separate plate are plated for time zero determination. All plates are incubated overnight at 37° C. and 5% CO2.
On a second day (e.g., Day 2), time zero values are measured. A […] volume of Cell Titer 96 Aqueous Solution (Promega) is added to each well and incubated in the dark at 37° C. and 5% CO2. Absorption can be measured at 490 nm and reference wavelength 660 nm. DMSO-prediluted test compounds are added to wells of interest, e.g., with HP Dispenser, to one or more desired concentrations (e.g., a final DMSO concentration of 0.3%).
On a tenth day (e.g., Day 10), absorption by wells treated with the test compounds and control wells are measured with, for example, Cell Titer 96 AQueous and analyzed in comparison to the time zero measurements. The IC50 values are determined using the four parameter fit. The resulting IC50 value is a measurement of the ability of the test compound to reduce cell growth of Ras-driven cells (e.g., tumor cell lines) in vitro and/or in vivo.

T2 sequence (P01116 1-188 isoform P01116-2): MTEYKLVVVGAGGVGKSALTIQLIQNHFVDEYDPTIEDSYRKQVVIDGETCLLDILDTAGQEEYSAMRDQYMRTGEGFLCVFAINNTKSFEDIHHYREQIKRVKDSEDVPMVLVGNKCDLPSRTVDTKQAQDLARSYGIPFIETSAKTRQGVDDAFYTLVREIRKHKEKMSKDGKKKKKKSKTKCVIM
T4 sequence (P01116 1-188 isoform P01116-2 G12S): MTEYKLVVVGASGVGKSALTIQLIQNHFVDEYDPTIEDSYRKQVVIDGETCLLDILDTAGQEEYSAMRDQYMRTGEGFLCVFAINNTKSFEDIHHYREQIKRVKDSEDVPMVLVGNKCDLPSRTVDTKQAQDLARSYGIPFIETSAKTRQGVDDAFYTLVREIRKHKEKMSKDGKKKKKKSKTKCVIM
T3 sequence (P01116 1-188 isoform P01116-2 G12V): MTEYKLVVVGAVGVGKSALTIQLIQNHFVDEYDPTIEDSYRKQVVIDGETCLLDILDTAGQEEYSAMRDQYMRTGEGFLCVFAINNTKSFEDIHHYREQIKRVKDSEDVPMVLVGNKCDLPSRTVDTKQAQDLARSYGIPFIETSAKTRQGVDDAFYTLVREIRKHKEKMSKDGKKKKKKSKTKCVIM
T1 sequence (P01116 1-188 isoform P01116-2 G12D): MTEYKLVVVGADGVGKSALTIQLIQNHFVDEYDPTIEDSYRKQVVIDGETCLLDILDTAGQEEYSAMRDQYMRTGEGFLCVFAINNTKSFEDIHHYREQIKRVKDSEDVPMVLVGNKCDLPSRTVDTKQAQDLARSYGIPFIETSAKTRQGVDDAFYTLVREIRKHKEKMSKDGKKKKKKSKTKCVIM

IC50 (KRAS G12D) [nM]	IC50 (KRAS WT) [nM]	IC50 (KRAS G12V) [nM]	IC50 (KRAS G12S) [nM]	IC50 (MiaPaca2 cells) [nM]	Structure (SMILES)
< 500	< 500	< 500	< 500	≤ 500	Cc1nccn1C(=O)N1CC[C@@H](N(C)c2nc(OC[C@@]34CCCN3C[C@H](F)C4)nc3c(F)c(-c4ccc(F)c5sc(N)c(C#N)c45)c(Cl)cc23)[C@H]1C [Compound 120, 2-amino-4-(6-chloro-8-fluoro-2-(((2R,7aS)-2-fluorotetrahydro-1H-pyrrolizin-7a(5H)-yl)methoxy)-4-(methyl((2R,3R)-2-methyl-1-(2-methyl-1H-imidazole-1-carbonyl)pyrrolidin-3-yl)amino)quinazolin-7-yl)-7-fluorobenzo[b]thiophene-3-carbonitrile]
< 500	< 500	< 500	< 500	≤ 500	CCN(c1nc(OC[C@@]23CCCN2C[C@H](F)C3)nc2c(F)c(-c3ccc(F)c4sc(N)c(C#N)c34)c(I)cc12)[C@@H]1CCN(C(=O)n2cc(C)nc2C)[C@@H]1C [Compound 184, 2-amino-4-(4-(((2R,3R)-1-(2,4-dimethyl-1H-imidazole-1-carbonyl)-2-methylpyrrolidin-3-yl)(ethyl)amino)-8-fluoro-2-(((2R,7aS)-2-fluorotetrahydro-1H-pyrrolizin-7a(5H)-yl)methoxy)-6-iodoquinazolin-7-yl)-7-fluorobenzo[b]thiophene-3-carbonitrile]
< 500	< 500	< 500	< 500	≤ 500	CN(c1nc(OC[C@@]23CCCN2C[C@H](F)C3)nc2c(F)c(-c3ccc(F)c4sc(N)c(C#N)c34)c(Cl)cc12)[C@@H]1CCN(C(=O)n2ccnc2)C1 [Compound 118, 4-(4-(((R)-1-(1H-imidazole-1-carbonyl)pyrrolidin-3-yl)(methyl)amino)-6-chloro-8-fluoro-2-(((2R,7aS)-2-fluorotetrahydro-1H-pyrrolizin-7a(5H)-yl)methoxy)quinazolin-7-yl)-2-amino-7-fluorobenzo[b]thiophene-3-carbonitrile]
< 500	< 500	< 500	< 500	≤ 500	CCN(c1nc(OC[C@@]23CCCN2C[C@H](F)C3)nc2c(F)c(-c3ccc(F)c4sc(N)c(C#N)c34)c(Cl)cc12)[C@@H]1CCN(C(=O)n2cc(C#N)nc2C)[C@@H]1C [Compound 102, 1-((2R,3R)-3-((7-(2-amino-3-cyano-7-fluorobenzo[b]thiophen-4-yl)-6-chloro-8-fluoro-2-(((2R,7aS)-2-fluorotetrahydro-1H-pyrrolizin-7a(5H)-yl)methoxy)quinazolin-4-yl)(ethyl)amino)-2-methylpyrrolidine-1-carbonyl)-2-methyl-1H-imidazole-4-carbonitrile]
< 500	< 500	< 500	< 500	≤ 500	Cc1c(C#N)ncn1C(=O)N1C[C@]2(CCCCN(c3nc(OC[C@@]45CCCN4C[C@H](F)C5)nc4c(F)c(-c5ccc(F)c6sc(N)c(C#N)c56)c(Cl)cc34)C2)[C@H]1C1(C)CC1 [Compound 111, 1-((1R,4R)-6-(7-(2-amino-3-cyano-7-fluorobenzo[b]thiophen-4-yl)-6-chloro-8-fluoro-2-(((2R,7aS)-2-fluorotetrahydro-1H-pyrrolizin-7a(5H)-yl)methoxy)quinazolin-4-yl)-1-(1-methylcyclopropyl)-2,6-diazaspiro[3.6]decane-2-carbonyl)-5-methyl-1H-imidazole-4-carbonitrile]
< 500	< 500	< 500	< 500	≤ 500	CCN(c1nc(OC[C@@]23CCCN2C[C@H](F)C3)nc2c(F)c(-c3ccc(F)c4sc(N)c(C#N)c34)c(Cl)cc12)[C@@H]1CCN(C(=O)n2cnc(C#N)c2C)[C@@H]1C [Compound 149, 1-((2R,3R)-3-((7-(2-amino-3-cyano-7-fluorobenzo[b]thiophen-4-yl)-6-chloro-8-fluoro-2-(((2R,7aS)-2-fluorotetrahydro-1H-pyrrolizin-7a(5H)-yl)methoxy)quinazolin-4-yl)(ethyl)amino)-2-methylpyrrolidine-1-carbonyl)-5-methyl-1H-imidazole-4-carbonitrile]
< 500	< 500	< 500	< 500	≤ 500	CC1C(N(C)c2nc(OC[C@@]34CCCN3C[C@H](F)C4)nc3c(F)c(-c4ccc(F)c5sc(N)c(C#N)c45)c(Cl)cc23)CCN1C(=O)n1cnc(F)n1 (stereo partly drawn) [Compound 160, 2-amino-4-(6-chloro-8-fluoro-4-((1-(3-fluoro-1H-1,2,4-triazole-1-carbonyl)-2-methylpyrrolidin-3-yl)(methyl)amino)-2-(((2R,7aS)-2-fluorotetrahydro-1H-pyrrolizin-7a(5H)-yl)methoxy)quinazolin-7-yl)-7-fluorobenzo[b]thiophene-3-carbonitrile]
< 500	< 500	< 500	< 500	≤ 500	Cc1nccn1C(=O)N1CC[C@@]12CCN(c1nc(OC[C@@]34CCCN3C[C@H](F)C4)nc3c(F)c(-c4ccc(F)c5sc(N)c(C#N)c45)c(Cl)cc13)C2 [Compound 116, 2-amino-4-(6-chloro-8-fluoro-2-(((2R,7aS)-2-fluorotetrahydro-1H-pyrrolizin-7a(5H)-yl)methoxy)-4-((R)-1-(2-methyl-1H-imidazole-1-carbonyl)-1,6-diazaspiro[3.4]octan-6-yl)quinazolin-7-yl)-7-fluorobenzo[b]thiophene-3-carbonitrile]
